According to patent US20210292330A1, “PYRROLIDINE-FUSED HETEROCYCLES” (Erasca, Inc., priority 2020, published 2021):

Molecular target: T1, KRAS 4B G12C protein (Homo sapiens, UniProt P01116, G12C)
T1 construct: This protein contained 188 amino acids in total, including an N-terminal 6-Histidine tag; made in house; host or cells: E. coli BL21
Experiment: In vitro covalent adduct formation (CAF) assay by LC-MS
Assay type: binding
Conditions: compound 10 μM, protein 5 μM, 22° C., percentage of protein bound by the compound
In short: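 Percent of protein covalently modified was quantified from intact-mass LC-MS ratios of free versus adducted protein, adducts within 1 Da of expected mass. Reactions: 10 μM compound, 5 μM His-TEV-KRAS 4B G12C (1-169) in TBS pH 7.4, 4% DMSO, 22° C., one hour, run in duplicate.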

C=C(F)C(=O)N1CCN(c2nc(OC[C@@H]3CCCN3C)nc3c2CN(Cc2c(Cl)ccc(O)c2C)C3)C[C@@H]1CC#N [1-311]
CAF (10 minutes/60 minutes) at 10 micromolar: 10 minutes: 93%
CAF (10 minutes/60 minutes) at 10 micromolar: 60 minutes: 95%

C=CC(=O)N1CCN(c2nc(OC[C@@H]3CCCN3C)nc3c2CN(Cc2cc(C)ccc2Cl)C3)C[C@@H]1CC#N [1-80]
CAF (10 minutes/60 minutes) at 10 micromolar: 10 minutes: 94%
CAF (10 minutes/60 minutes) at 10 micromolar: 60 minutes: 96%

C=CC(=O)N1CCN(c2nc(OC[C@@H]3CCCN3C)nc3c2CN(C(C)c2cc(F)ccc2C)C3)C[C@@H]1CC#N (stereo partly drawn) [1-73]
CAF (10 minutes/60 minutes) at 10 micromolar: 10 minutes: 61%
CAF (10 minutes/60 minutes) at 10 micromolar: 60 minutes: 86%

C=C(F)C(=O)N1CCN(c2nc(OC[C@@H]3CCCN3C)nc3c2CN(Cc2cc(O)c(C)cc2C)C3)C[C@@H]1CC#N [1-327]
CAF (10 minutes/60 minutes) at 10 micromolar: 10 minutes: 0%
CAF (10 minutes/60 minutes) at 10 micromolar: 60 minutes: 3%

C=CC(=O)N1CCN(c2nc(OC[C@@H]3CCCN3C)nc3c2CN(Cc2cc(OC)ccc2F)C3)C[C@@H]1CC#N [1-39]
CAF (10 minutes/60 minutes) at 10 micromolar: 10 minutes: 51%
CAF (10 minutes/60 minutes) at 10 micromolar: 60 minutes: 72%

C=CC(=O)N1CCN(c2nc(OCC3CC3)nc3c2CN(C2CCc4ccccc42)C3)C[C@@H]1CC#N (stereo partly drawn) [1-142]
CAF (10 minutes/60 minutes) at 10 micromolar: 10 minutes: 7%
CAF (10 minutes/60 minutes) at 10 micromolar: 60 minutes: 36%

C=CC(=O)N1CCN(c2nc(OC[C@@H]3CCCN3C)nc3c2CN(C2CCc4ccccc42)C3)C[C@@H]1C#N (stereo partly drawn) [1-155, (2R)-1-acryloyl-4-(6-(2,3-dihydro-1H-inden-1-yl)-2-(((S)-1-methylpyrrolidin-2-yl)methoxy)-6,7-dihydro-5H-pyrrolo[3,4-d]pyrimidin-4-yl)piperazine-2-carbonitrile]
CAF (10 minutes/60 minutes) at 10 micromolar: 10 minutes: 66%
CAF (10 minutes/60 minutes) at 10 micromolar: 60 minutes: 82%

C=CC(=O)N1CCN(c2nc(Oc3cccc4ccn(C)c34)nc3c2CN(C2CCc4ccccc42)C3)C[C@@H]1CC#N (stereo partly drawn) [1-166]
CAF (10 minutes/60 minutes) at 10 micromolar: 10 minutes: 2%
CAF (10 minutes/60 minutes) at 10 micromolar: 60 minutes: 15%

C=CC(=O)N1CCN(c2nc(OC[C@@H]3CCCN3C)nc3c2CN(Cc2cc(O)ccc2Cl)C3)CC1 [1-165]
CAF (10 minutes/60 minutes) at 10 micromolar: 10 minutes: 88%
CAF (10 minutes/60 minutes) at 10 micromolar: 60 minutes: 96%

C=CC(=O)N1CCN(c2nc(OC[C@@H]3CCCN3C)nc3c2CN(Cc2ccccc2C)C3)C[C@@H]1CC#N [1-45]
CAF (10 minutes/60 minutes) at 10 micromolar: 10 minutes: 94%
CAF (10 minutes/60 minutes) at 10 micromolar: 60 minutes: 98%

C=C(F)C(=O)N1CCN(c2nc(OC[C@@H]3CCCN3C)nc3c2CN(Cc2cc(O)ccc2C(C)C)C3)C[C@@H]1CC#N [1-218]
CAF (10 minutes/60 minutes) at 10 micromolar: 10 minutes: 95%
CAF (10 minutes/60 minutes) at 10 micromolar: 60 minutes: 94%

C=CC(=O)N1CCN(c2nc(OC[C@@H]3CCCN3C)nc3c2CN(Cc2c(Cl)ccc(O)c2Cl)C3)C[C@@H]1CC#N [1-321]
CAF (10 minutes/60 minutes) at 10 micromolar: 10 minutes: 88%
CAF (10 minutes/60 minutes) at 10 micromolar: 60 minutes: 90%

C=CC(=O)N1CC2COCC(C1)N2c1nc(OC[C@@H]2CCCN2C)nc2c1CN(Cc1cc(OC)ccc1Cl)C2 [1-88]
CAF (10 minutes/60 minutes) at 10 micromolar: 10 minutes: 0%/ 0%
CAF (10 minutes/60 minutes) at 10 micromolar: 60 minutes: 0%/ 0%

C=CC(=O)N1CC2CC1CN2c1nc(OC[C@@H]2CCCN2C)nc2c1CN(C1CCc3ccccc31)C2 (stereo partly drawn) [1-249]
CAF (10 minutes/60 minutes) at 10 micromolar: 10 minutes: 0%/ 0%
CAF (10 minutes/60 minutes) at 10 micromolar: 60 minutes: 0%/ 0%

C=CC(=O)N1CCN(c2nc(OC[C@@H]3CCCN3C)nc3c2CN(Cc2c(Cl)cccc2OC)C3)C[C@@H]1CCO [1-92]
CAF (10 minutes/60 minutes) at 10 micromolar: 10 minutes: 0%/ 0%
CAF (10 minutes/60 minutes) at 10 micromolar: 60 minutes: 0%/ 0%

C=CC(=O)N1CCN(c2nc(OC[C@@H]3CCCN3C)nc3c2CN(C2CC(C)(C)c4ccccc42)C3)C[C@@H]1CC#N (stereo partly drawn) [1-169]
CAF (10 minutes/60 minutes) at 10 micromolar: 10 minutes: 63%
CAF (10 minutes/60 minutes) at 10 micromolar: 60 minutes: 70%

C=CC(=O)N1CCN(c2nc(OC[C@@H]3CCCN3C)nc3c2CN(C2CCCc4cccc(Cl)c42)C3)C[C@@H]1CC#N (stereo partly drawn) [1-72]
CAF (10 minutes/60 minutes) at 10 micromolar: 10 minutes: 95%
CAF (10 minutes/60 minutes) at 10 micromolar: 60 minutes: 98%

C#Cc1ccccc1CN1Cc2nc(OC[C@@H]3CCCN3C)nc(N3CCN(C(=O)C=C)[C@@H](CC#N)C3)c2C1 [1-235]
CAF (10 minutes/60 minutes) at 10 micromolar: 10 minutes: 0%/ 0%
CAF (10 minutes/60 minutes) at 10 micromolar: 60 minutes: 0%/ 0%

C=CC(=O)N1CCN(c2nc(OC[C@@H]3CCCN3C)nc3c2CN(Cc2ccc(F)cc2Cl)C3)C[C@@H]1CC#N [1-96]
CAF (10 minutes/60 minutes) at 10 micromolar: 10 minutes: 51%
CAF (10 minutes/60 minutes) at 10 micromolar: 60 minutes: 93%

C=C(F)C(=O)N1CCN(c2nc(OC[C@@H]3CCCN3C)nc3c2CN(Cc2nc(N)cc(C)c2C(F)(F)F)C3)C[C@@H]1CC#N [1-334]
CAF (10 minutes/60 minutes) at 10 micromolar: 10 minutes: 79%
CAF (10 minutes/60 minutes) at 10 micromolar: 60 minutes: 86%

C=CC(=O)N1CC2CC(=O)CC1CN2c1nc(OC)nc2c1CN(C1CCc3ccccc31)C2 (stereo not drawn) [1-250]
CAF (10 minutes/60 minutes) at 10 micromolar: 10 minutes: 0%/ 0%
CAF (10 minutes/60 minutes) at 10 micromolar: 60 minutes: 0%/ 0%

C=CC(=O)N1CCN(c2nc(OC[C@@H]3CCCN3C)nc3c2CN(Cc2cccc(F)c2)C3)C[C@@H]1CC#N [1-35]
CAF (10 minutes/60 minutes) at 10 micromolar: 10 minutes: 56%
CAF (10 minutes/60 minutes) at 10 micromolar: 60 minutes: 91%

C=CC(=O)N1CCN(c2nc(OC[C@@H]3CCCN3C)nc3c2CN(Cc2c(Cl)cccc2OC(F)F)C3)C[C@H]1C [1-105]
CAF (10 minutes/60 minutes) at 10 micromolar: 10 minutes: 0%/ 0%
CAF (10 minutes/60 minutes) at 10 micromolar: 60 minutes: 0%/ 0%

C=CC(=O)N1CCN(c2nc(OC[C@@H]3CCCN3CCF)nc3c2CN(C2CCc4ccccc42)C3)C[C@@H]1CC#N (stereo partly drawn) [1-151]
CAF (10 minutes/60 minutes) at 10 micromolar: 10 minutes: 81%
CAF (10 minutes/60 minutes) at 10 micromolar: 60 minutes: 91%

C=CC(=O)N1CC2COCC(C1)N2c1nc(OC[C@@H]2CCCN2C)nc2c1CN(Cc1cc(O)ccc1Cl)C2 [1-90]
CAF (10 minutes/60 minutes) at 10 micromolar: 10 minutes: 2%
CAF (10 minutes/60 minutes) at 10 micromolar: 60 minutes: 12%

C=CC(=O)N1CCN(c2nc(OC[C@@H]3CCCN3C)nc3c2C(C(F)(F)F)N(Cc2ccccc2)C3)C[C@@H]1CC#N (stereo partly drawn) [1-181, 2-((2S)-1-acryloyl-4-(6-benzyl-2-(((S)-1-methylpyrrolidin-2-yl)methoxy)-5-(trifluoromethyl)-6,7-dihydro-5H-pyrrolo[3,4-d]pyrimidin-4-yl)piperazin-2-yl)acetonitrile]
CAF (10 minutes/60 minutes) at 10 micromolar: 10 minutes: 0%/ 0%
CAF (10 minutes/60 minutes) at 10 micromolar: 60 minutes: 0%/ 0%

C=CC(=O)N1C2CC(=O)CC1CN(c1nc(OC[C@@H]3CCCN3C)nc3c1CN(C1CCc4ccccc41)C3)C2 (stereo partly drawn) [1-233]
CAF (10 minutes/60 minutes) at 10 micromolar: 10 minutes: 0%
CAF (10 minutes/60 minutes) at 10 micromolar: 60 minutes: 5%

C=CC(=O)N1CCN(c2nc(OC)nc3c2CN(Cc2cc(F)ccc2Cl)C3)C[C@@H]1CC#N [1-76]
CAF (10 minutes/60 minutes) at 10 micromolar: 10 minutes: 0%
CAF (10 minutes/60 minutes) at 10 micromolar: 60 minutes: 7%

C=CC(=O)N1CCN(c2nc(OC[C@@H]3CCCN3C)nc3c2CN(Cc2cccc4nc[nH]c24)C3)C[C@@H]1CC#N [1-201]
CAF (10 minutes/60 minutes) at 10 micromolar: 10 minutes: 79%
CAF (10 minutes/60 minutes) at 10 micromolar: 60 minutes: 94%

C=CC(=O)N1CCN(c2nc(OC[C@@H]3CC(F)(F)CN3C)nc3c2CN(C2CCc4ccccc42)C3)C[C@@H]1CC#N (stereo partly drawn) [1-133]
CAF (10 minutes/60 minutes) at 10 micromolar: 10 minutes: 84%
CAF (10 minutes/60 minutes) at 10 micromolar: 60 minutes: 90%

C=C(F)C(=O)N1CCN(c2nc(OC[C@@H]3CCCN3C)nc3c2CN(Cc2nc(N)ccc2Cl)C3)C[C@@H]1CC#N [1-339]
CAF (10 minutes/60 minutes) at 10 micromolar: 10 minutes: 83%
CAF (10 minutes/60 minutes) at 10 micromolar: 60 minutes: 92%

C=CC(=O)N1CCN(c2nc(OC[C@@H]3CCCN3C)nc3c2CN(Cc2cc(O)ccc2Cl)C3)C2COCC21 (stereo partly drawn) [1-315]
CAF (10 minutes/60 minutes) at 10 micromolar: 10 minutes: 41%
CAF (10 minutes/60 minutes) at 10 micromolar: 60 minutes: 66%

C=CC(=O)N1CCN(c2nc(OC[C@@H]3CCCN3C)nc3c2CN(C2CCc4ccccc42)C3)C[C@@H]1Cn1nccn1 (stereo partly drawn) [1-215]
CAF (10 minutes/60 minutes) at 10 micromolar: 10 minutes: 0%
CAF (10 minutes/60 minutes) at 10 micromolar: 60 minutes: 7%

C=CC(=O)N1CCN(c2nc(OC[C@@H]3CCCN3C)nc3c2CN(Cc2ncccc2Cl)C3)C[C@@H]1CC#N [1-113]
CAF (10 minutes/60 minutes) at 10 micromolar: 10 minutes: 59%
CAF (10 minutes/60 minutes) at 10 micromolar: 60 minutes: 89%

C=C(F)C(=O)N1CCN(c2nc(OC[C@@H]3CCCN3C)nc3c2CN(Cc2n[nH]c4ccccc24)C3)C[C@@H]1CC#N [1-345]
CAF (10 minutes/60 minutes) at 10 micromolar: 10 minutes: 0%/ 0%
CAF (10 minutes/60 minutes) at 10 micromolar: 60 minutes: 0%/ 0%

C=CC(=O)N1C2CCCC1CN(c1nc(OC[C@@H]3CCCN3C)nc3c1CN(Cc1cc(OC)ccc1Cl)C3)C2 [1-148]
CAF (10 minutes/60 minutes) at 10 micromolar: 10 minutes: 0%/ 0%
CAF (10 minutes/60 minutes) at 10 micromolar: 60 minutes: 0%/ 0%

C=CC(=O)N1C2CC(=O)CC1CN(c1nc(OC[C@@H]3CCCN3C)nc3c1CN(Cc1cc(O)ccc1Cl)C3)C2 [1-328]
CAF (10 minutes/60 minutes) at 10 micromolar: 10 minutes: 14%
CAF (10 minutes/60 minutes) at 10 micromolar: 60 minutes: 39%

C=CC(=O)N1CCN(c2nc(OC[C@@H]3CCCN3CC(F)F)nc3c2CN(C2CCc4ccccc42)C3)C[C@@H]1CC#N (stereo partly drawn) [1-147]
CAF (10 minutes/60 minutes) at 10 micromolar: 10 minutes: 78%
CAF (10 minutes/60 minutes) at 10 micromolar: 60 minutes: 86%

C=CC(=O)N1CCN(c2nc(OCc3ccccn3)nc3c2CN(C2CCc4ccccc42)C3)C[C@@H]1CC#N (stereo partly drawn) [1-132]
CAF (10 minutes/60 minutes) at 10 micromolar: 10 minutes: 24%
CAF (10 minutes/60 minutes) at 10 micromolar: 60 minutes: 68%

C=C(F)C(=O)N1CCN(c2nc(OC[C@@H]3CCCN3C)nc3c2CN(Cc2c[nH]nc2C)C3)C[C@@H]1CC#N [1-343]
CAF (10 minutes/60 minutes) at 10 micromolar: 10 minutes: 0%/ 0%
CAF (10 minutes/60 minutes) at 10 micromolar: 60 minutes: 0%/ 0%

C=CC(=O)N1C2CC(=O)CC1CN(c1nc(O[C@@H]3CN(C)C[C@H]3OC)nc3c1CN(C1CCc4ccccc41)C3)C2 (stereo partly drawn) [1-232]
CAF (10 minutes/60 minutes) at 10 micromolar: 10 minutes: 0%/ 0%
CAF (10 minutes/60 minutes) at 10 micromolar: 60 minutes: 0%/ 0%

C=CC(=O)N1CCN(c2nc(O[C@@H]3CN(C)C[C@H]3OC)nc3c2CN(C2CCc4ccccc42)C3)C[C@@H]1CC#N (stereo partly drawn) [1-170]
CAF (10 minutes/60 minutes) at 10 micromolar: 10 minutes: 31%
CAF (10 minutes/60 minutes) at 10 micromolar: 60 minutes: 53%
